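Where inhibition never reached the appropriate level, the endpoint shown equals the highest concentration tested. Otherwise, values were interpolated linearly from a five-concentration, 48-hour dose response in 96-well plates. The concentration for 50% growth inhibition is given as GI50.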 Active and inactive are the calls of the source. Rule as the data show it: active = GI50 up to about 1.1 µM and inactive = higher. Bounds are passed on as bounds.

From ChEMBL document CHEMBL1201862, “PubChem BioAssay data set” (2004) come the findings set out here.

Test systems include OVCAR-5; PC-3; SNB-19; NCI-H460; MDA-MB-435; NCI-H23; MOLT-4; SK-OV-3; Hs-578T; MCF7; MDA-N; NCI/ADR-RES; 786-0; SR; UACC-257; HCC 2998; HOP-62; U-251; NCI-H226; OVCAR-4.
Common to all, as to assay: NCI-60 cell line screen, 48 h

As for `COc1ccc(C(CC2(c3ccc(OC)cc3)SCCCS2)NC(C)=O)cc1` (stereo not given), the GI50 in the test on OVCAR-5 was > 100 µM (inactive); in the test with PC-3, 23.8 µM (inactive); in the test on SNB-19 it was 99.1 µM (inactive); in the test on NCI-H460, 40.7 µM (inactive); with MDA-MB-435, 40.7 µM (inactive); with NCI-H23, 29.4 µM (inactive). The GI50 in the test with MOLT-4 is 30.1 µM (inactive); with SK-OV-3 it was 40.8 µM (inactive); with Hs-578T, 86.7 µM (inactive); in the test with MCF7, 37.2 µM (inactive); with MDA-N it was 61 µM (inactive); in the test on NCI/ADR-RES, 21.2 µM (inactive). Further, the GI50 with 786-0 was > 100 µM (inactive); with SR it was 71.3 µM (inactive); with UACC-257, 26.2 µM (inactive); in the test with HCC 2998, 42.6 µM (inactive); with HOP-62, 47.1 µM (inactive); with U-251 it was 38.8 µM (inactive).
For `CCCCCCCCNC(=O)C1=C(C)NC(C)=C(C(=O)NCCCCCCCC)C1`, the GI50 in the test on OVCAR-5 is > 100 µM (inactive); in the test on PC-3, 80 µM (inactive); with SNB-19, > 100 µM (inactive); with NCI-H460, > 100 µM (inactive); in the test on NCI-H226, > 100 µM (inactive); in the test with MDA-MB-435 it was 44.8 µM (inactive). Moreover, the GI50 in the test with NCI-H23 is > 100 µM (inactive); with MOLT-4, > 100 µM (inactive); in the test on SK-OV-3, > 100 µM (inactive); in the test with Hs-578T it was > 100 µM (inactive); in the test with MCF7, > 100 µM (inactive); in the test on MDA-N, 89.5 µM (inactive). Also, the GI50 in the test with NCI/ADR-RES, with 786-0, with UACC-257, in the test on HCC 2998, in the test on HOP-62 and in the test on OVCAR-4 was > 100 µM (inactive) in each case. The GI50 in the test with U-251 is 94.4 µM (inactive).
`O=C(O)c1c[nH]c2c(Sc3ccccc3)nccc2c1=O`: the GI50 in the test on OVCAR-5, in the test on PC-3, in the test on SNB-19, with NCI-H460, with NCI-H226 and in the test on MDA-MB-435 was > 100 µM (inactive) each time. Besides, the GI50 in the test with NCI-H23, in the test with MOLT-4, in the test with SK-OV-3, in the test with Hs-578T, in the test on MCF7 and in the test with MDA-N was > 100 µM (inactive) throughout. Besides, the GI50 in the test with NCI/ADR-RES, with 786-0, with UACC-257, in the test on HOP-62, in the test with OVCAR-4 and with U-251 was > 100 µM (inactive) throughout.
For the compound `O=c1c(-c2ccccc2)nnc2n(Cc3ccccc3)c3ccccc3n12`, the GI50 in the test on OVCAR-5 is > 100 µM (inactive); in the test on SNB-19, > 100 µM (inactive); with NCI-H460, > 100 µM (inactive); in the test with NCI-H226, 22.5 µM (inactive); in the test with MDA-MB-435 it was > 100 µM (inactive); in the test on NCI-H23 it was > 100 µM (inactive). In addition, the GI50 with MOLT-4, in the test on Hs-578T, in the test with MCF7, in the test on MDA-N, with NCI/ADR-RES and in the test on 786-0 was > 100 µM (inactive) throughout. Besides, the GI50 in the test on SR, in the test on UACC-257, in the test on HCC 2998, with OVCAR-4 and with U-251 was > 100 µM (inactive) each time.
Regarding `OCCOCCN1CCN(CCCN2c3ccccc3Sc3ccc(C(F)(F)F)cc32)CC1`, the GI50 is 14.3 µM (inactive) in the test with OVCAR-5; 15.6 µM (inactive) in the test on PC-3; 14.4 µM (inactive) in the test with SNB-19; 9.95 µM (inactive) in the test with NCI-H460; 16.4 µM (inactive) in the test with NCI-H226; 11.1 µM (inactive) with MDA-MB-435. The GI50 in the test on NCI-H23 was 16.4 µM (inactive); in the test with MOLT-4, 13.1 µM (inactive); in the test with SK-OV-3 it was 19.5 µM (inactive); with Hs-578T, 11.9 µM (inactive); with MCF7, 13.1 µM (inactive); in the test on MDA-N, 13 µM (inactive). Moreover, the GI50 with 786-0 is 16.6 µM (inactive); in the test on UACC-257, 5.15 µM (inactive); with HCC 2998, 2.78 µM (inactive); in the test with HOP-62 it was 17.6 µM (inactive); with OVCAR-4, 15.7 µM (inactive); with U-251 it was 12.3 µM (inactive).
Regarding `NS(=O)(=O)c1ccc(C(=O)O)cc1` [CARZENIDE], the GI50 in the test with OVCAR-5, in the test on PC-3, in the test on SNB-19, in the test with MDA-MB-435, in the test with NCI-H23 and in the test with MOLT-4 was > 100 µM (inactive) each time. In addition, the GI50 with SK-OV-3, with Hs-578T, with MCF7, with MDA-N, in the test on NCI/ADR-RES and in the test with 786-0 was > 100 µM (inactive) in each case. Further, the GI50 in the test on HOP-62, in the test with OVCAR-4 and in the test on U-251 was > 100 µM (inactive) in each case.
For the compound `CC(C)CCCC(C)[C@H]1CC[C@H]2[C@@H]3CC[C@H]4C[C@@H](CCC=C(c5cc(Cl)c(O)c(C(=O)OC(C)C)c5)c5cc(Cl)c(O)c(C(=O)OC(C)C)c5)CC[C@]4(C)[C@H]3CC[C@]12C` (stereo not given in full), the GI50 with OVCAR-5, in the test on PC-3, in the test with SNB-19, in the test with MDA-MB-435, in the test with NCI-H23 and in the test with MOLT-4 was > 50 µM (inactive) throughout. In addition, the GI50 with SK-OV-3, in the test with Hs-578T, in the test on MCF7, in the test on MDA-N, with NCI/ADR-RES and in the test with 786-0 was > 50 µM (inactive) throughout. Besides, the GI50 with HCC 2998, in the test on HOP-62, in the test on OVCAR-4 and in the test with U-251 was > 50 µM (inactive) each time.
Turning to `CCOC(=O)/C(=C\NC(C)(C)CO)c1nc2ccccc2[nH]1`, the GI50 in the test with OVCAR-5 was > 100 µM (inactive); in the test with SNB-19, > 100 µM (inactive); in the test on NCI-H460, 36.1 µM (inactive); in the test on MDA-MB-435 it was > 100 µM (inactive); with NCI-H23, 67.8 µM (inactive); with MOLT-4 it was 43.3 µM (inactive). The GI50 was > 100 µM (inactive) in the test with SK-OV-3; 34.4 µM (inactive) in the test on Hs-578T; 86.3 µM (inactive) in the test on MCF7; > 100 µM (inactive) with MDA-N; 79.6 µM (inactive) in the test on NCI/ADR-RES; > 100 µM (inactive) in the test with 786-0. Also, the GI50 in the test with SR was 47.3 µM (inactive); in the test with UACC-257, > 100 µM (inactive); in the test with HCC 2998 it was 46.2 µM (inactive); in the test with HOP-62, > 100 µM (inactive); with OVCAR-4, 94 µM (inactive).
For the compound `O=C(CCCN1CCC2(CC1)CC(=O)N(N1CCOCC1)C2=O)c1ccc(F)cc1`, the GI50 was > 100 µM (inactive) in the test on OVCAR-5; > 100 µM (inactive) in the test with PC-3; > 100 µM (inactive) in the test with SNB-19; > 100 µM (inactive) in the test on NCI-H460; 99.3 µM (inactive) in the test on NCI-H226; > 100 µM (inactive) in the test with MDA-MB-435. Besides, the GI50 in the test on NCI-H23, with MOLT-4, in the test with SK-OV-3, with Hs-578T, in the test with MCF7 and in the test on MDA-N was > 100 µM (inactive) in each case. In addition, the GI50 in the test on NCI/ADR-RES, in the test with 786-0, in the test on UACC-257, in the test with HOP-62 and with U-251 was > 100 µM (inactive) throughout.
`C=C(C)C12OC1[C@@]1(C)C(=CC2=O)CCC(O)[C@@H]1C` (stereo not given in full): the GI50 in the test on OVCAR-5 is 8.51 µM (inactive); in the test with PC-3, 2.65 µM (inactive); in the test with SNB-19, 1.69 µM (inactive); in the test with NCI-H460 it was 0.743 µM (active); in the test with MDA-MB-435 it was 3.29 µM (inactive); with NCI-H23, 2.26 µM (inactive). Further, the GI50 is 0.863 µM (active) in the test on MOLT-4; 1.75 µM (inactive) in the test with Hs-578T; 3.53 µM (inactive) with MCF7; 2.68 µM (inactive) in the test on MDA-N; 1.64 µM (inactive) in the test with 786-0; 1.84 µM (inactive) with SR. Besides, the GI50 in the test on UACC-257 is 3.34 µM (inactive); in the test with HCC 2998 it was 0.718 µM (active); with HOP-62 it was 1.4 µM (inactive); in the test on OVCAR-4 it was 3.45 µM (inactive); in the test on U-251 it was 1.14 µM (inactive).
For `SC1=NC2=C(CSC/C2=C\c2ccc(Cl)cc2)C(c2ccc(Cl)cc2)N1` (stereo not given), the GI50 was 72.4 µM (inactive) in the test on OVCAR-5; 31.3 µM (inactive) in the test on PC-3; 44.3 µM (inactive) with SNB-19; 31.4 µM (inactive) in the test on NCI-H460; 46.9 µM (inactive) in the test with NCI-H23; 31.1 µM (inactive) with MOLT-4. Further, the GI50 with SK-OV-3 was 55.8 µM (inactive); with Hs-578T it was 45.3 µM (inactive); with MCF7 it was 30.8 µM (inactive); in the test with MDA-N it was 33.5 µM (inactive); in the test with NCI/ADR-RES it was 38.1 µM (inactive); in the test with 786-0 it was 26.5 µM (inactive). The GI50 in the test with SR is 32.2 µM (inactive); in the test on UACC-257 it was 32 µM (inactive); in the test with HCC 2998, 25.4 µM (inactive); in the test on HOP-62 it was 36 µM (inactive); with OVCAR-4 it was 42.5 µM (inactive); in the test with U-251 it was 36.8 µM (inactive).
